Source: US20040132803A1, “Agent for the treatment of overactive bladder” (priority 2003, published 2004)

How the values were obtained:
[1] = test system: slowly-inactivating A-type K^+ currents; assay: Voltage-clamp outward K^+ currents at HP −90 mV in unidentified DRG neurons; format: cell-based, rat; settings: for K^+ current at HP: −90 mV, relative value (before compound = 1): unidentified DRG neurons
Description: (§1) Experiments were performed on adult female Sprague Dawley rats. First and second series of the experiments were performed, respectively, in unidentified DRG neurons and a specific population of DRG neurons innervating the urinary bladder. The population of DRG neurons that innervate the urinary bladder were labeled by retrograde axonal transport of the fluorescent dye, Fast Blue (4% w/v) (Polyloy, Gross Umstadt, Germany), injected into the wall of the bladder in halothane-anesthetized animals 7 days before the dissociation. The dye was injected with a 28 gauge needle at three to six sites on the dorsal surface of the organ (5-6 μL per site, total volume of 20-30 μL). Each injection site was washed with saline to minimize contamination of adjacent organs with the dye.
Freshly dissociated neurons from DRG were prepared from halothane-anesthetized animals. L6 and S1 DRG were dissected from animals and then dissociated in a shaking bath for 25 minutes at 35° C. with 5 mL DMEM (Sigma) containing 0.3 mg/mL trypsin (Type 3, Sigma), 1 mg/mL collagenase (Type 1, Sigma), and 0.1 mg/mL deoxyribonuclease (Type 4, Sigma). Trypsin inhibitor (Type 2a, Sigma) was then added thereto to neutralize the activity of trypsin. Individual DRG cell bodies were isolated by trituration and then plated on a poly-L-lysine-coated 35 mm Petri dishes.
Dye-labeled primary afferent neurons that innervate the urinary bladder were identified using an inverted phase-contrast microscope (Nikon, Tokyo, Japan) with fluorescent attachments (UV-1A filter; excitation wavelength, 365 nm). Gigaohm-seal whole-cell recordings were performed at room temperature (20-22° C.) on each labeled neuron in a culture dish that usually contained three to seven labeled cells among a few hundred unlabeled neurons. The internal solution contained (in mmol/L): KCl 140, CaCl2 1, MgCl2 2, EGTA 11, HEPES 10, Mg-ATP 2, and Tris-GTP 0.4 adjusted to pH 7.4 with KOH. Patch electrodes had resistances of 1-4 MΩ when filled with the internal solution. Neurons were superfused at a flow rate of 1.5 mL/minutes with an external solution containing (in mmol/L): NaCl 150, KCl 5, CaCl2 2.5, MgCl2 1, HEPES 10, and D-glucose 10, adjusted to pH 7.4 with NaOH. All recordings were made with an Axopatch-1D patch-clamp amplifier (Axon Instruments, Foster City, Calif.), and data were acquired and analyzed by PCLAMP software (Axon Instruments).
In voltage-clamp recordings, outward K^+ currents and inward Na^+ currents were measured. For the isolation of K^+ currents, the external solution was changed to one containing (in mmol/L): choline-Cl 150, KOH 5, CaCl2 0.03, HEPES 10, Mg(OH)2 3, and D-glucose 10, adjusted to pH 7.4 with HCl.
In first series of experiments using unidentified DRG neurons, outward K^+ currents were evoked by voltage steps to +60 mV, 800 ms long from a holding potentials of −90 mV, this was followed by a 1-second conditioning prepulse to −20 mV followed by a second pulse to +60 mV, identical to the first in the sequence. In the second series of experiments using Fast Blue-labeled bladder afferent neurons, slowly-inactivating A-type K^+ currents were isolated by. subtraction of outward K^+ currents activated from a holding potential of −40 mV (on the condition of inactivation of the majority of slowly-inactivating A-type K^+ currents) from those activated from a holding potential of −120 mV (on the condition of full activation of slowly-inactivating A-type K^+ currents). A compound was added cumulatively, starting with a lower concentration. Currents were measured at the maximum (peak) and normalized to control (before addition of the compound).

[2] = test system: slowly-inactivating A-type K^+ currents; assay: Slowly-inactivating A-type K^+ currents in Fast Blue-labeled capsaicin-sensitive bladder afferent neurons; format: cell-based, rat; settings: 1.0 × 10^−6 mol/L
Description: as §1
Freshly dissociated neurons from DRG were prepared from halothane-anesthetized animals. […]
Dye-labeled primary afferent neurons that innervate the urinary bladder were identified using an inverted phase-contrast microscope (Nikon, Tokyo, Japan) with fluorescent attachments (UV-1A filter; excitation wavelength, 365 nm). […] All recordings were made with an Axopatch-1D patch-clamp amplifier (Axon Instruments, Foster City, Calif.), and data were acquired and analyzed by PCLAMP software (Axon Instruments).
In voltage-clamp recordings, outward K^+ currents and inward Na^+ currents were measured. […]

[3] = test system: rats with hypertrophic bladder; assay: Inhibition of detrusor instability, cystometry in rats with partial urethra obstruction (hypertrophic bladder); format: in vivo, rat; settings: for micturition contraction, relative to before administration = 100 / pre-micturition contraction, relative to before administration = 100: rats with partial urethra obstruction
Excerpt: Partial urethra obstruction was induced in rats.

[4] = 0.001 mg/kg p.o., after 3 hours
[5] = 0.001 mg/kg p.o., after 5 hours

C[C@](O)(C(=O)Nc1cccc2c1C(=O)c1sccc1CS2(=O)=O)C(F)(F)F [Compound 1, (S)-(+)-N-(5,5-dioxido-10-oxo-4,10-dihydrothieno[3,2-c][l]benzothiepin-9-yl)-3,3,3-trifluoro-2-hydroxy-2-methylpropanamide]
K^+ current at HP: −90 mV, relative value ([1]; 1.0 × 10^−5 mol/L, in the presence of 5 μmol/L verapamil): 0.99 ± 0.02
K^+ current at HP: −90 mV, relative value ([1]; 1.0 × 10^−5 mol/L, in the presence of 20 mmol/L tetraethylammonium): 1.19 ± 0.01
K^+ current at HP: −90 mV, relative value (before compound = 1) ([1]; 1.0 × 10^−5 mol/L): 0.96 ± 0.05
K^+ current at HP: −90 mV, relative value ([1]; 1.0 × 10^−6 mol/L, in the presence of 5 μmol/L verapamil): 1.11 ± 0.03
K^+ current at HP: −90 mV, relative value ([1]; 1.0 × 10^−6 mol/L, in the presence of 20 mmol/L tetraethylammonium): 1.19 ± 0.05
K^+ current at HP: −90 mV, relative value (before compound = 1) ([1]; 1.0 × 10^−6 mol/L): 1.06 ± 0.02
K^+ current at HP: −90 mV, relative value ([1]; 1.0 × 10^−7 mol/L, in the presence of 5 μmol/L verapamil): 1.13 ± 0.02
K^+ current at HP: −90 mV, relative value ([1]; 1.0 × 10^−7 mol/L, in the presence of 20 mmol/L tetraethylammonium): 1.10 ± 0.01
K^+ current at HP: −90 mV, relative value (before compound = 1) ([1]; 1.0 × 10^−7 mol/L): 1.12 ± 0.03
K^+ current at HP: −90 mV, relative value (before compound = 1) ([1]; 1.0 × 10^−8 mol/L): 0.99 ± 0.08
K^+ current at HP: −90 mV, relative value (before compound = 1) ([1]; 2.5 × 10^−8 mol/L): 1.07 ± 0.03
K^+ current at HP: −90 mV, relative value ([1]; 5.0 × 10^−4 mol/L, in the presence of 5 μmol/L verapamil): 0.61 ± 0.05
K^+ current at HP: −90 mV, relative value ([1]; 5.0 × 10^−4 mol/L, in the presence of 20 mmol/L tetraethylammonium): 0.29 ± 0.02
K^+ current at HP: −90 mV, relative value ([1]; 5.0 × 10^−4 mol/L, in the presence of 60 mmol/L tetraethylammonium): 0.56 ± 0.05
K^+ current at HP: −90 mV, relative value ([1]; 5.0 × 10^−5 mol/L, in the presence of 5 μmol/L verapamil): 0.94 ± 0.02
K^+ current at HP: −90 mV, relative value ([1]; 5.0 × 10^−5 mol/L, in the presence of 20 mmol/L tetraethylammonium): 0.91 ± 0.04
K^+ current at HP: −90 mV, relative value ([1]; 5.0 × 10^−5 mol/L, in the presence of 60 mmol/L tetraethylammonium): 1.15 ± 0.08
K^+ current at HP: −90 mV, relative value (before compound = 1) ([1]; 5.0 × 10^−5 mol/L): 0.83 ± 0.09
K^+ current at HP: −90 mV, relative value ([1]; 5.0 × 10^−6 mol/L, in the presence of 5 μmol/L verapamil): 1.02 ± 0.03
K^+ current at HP: −90 mV, relative value ([1]; 5.0 × 10^−6 mol/L, in the presence of 20 mmol/L tetraethylammonium): 1.16 ± 0.03
K^+ current at HP: −90 mV, relative value ([1]; 5.0 × 10^−6 mol/L, in the presence of 60 mmol/L tetraethylammonium): 1.14 ± 0.05
K^+ current at HP: −90 mV, relative value ([1]; 5.0 × 10^−7 mol/L, in the presence of 5 μmol/L verapamil): 1.17 ± 0.03
K^+ current at HP: −90 mV, relative value ([1]; 5.0 × 10^−7 mol/L, in the presence of 20 mmol/L tetraethylammonium): 1.15 ± 0.04
K^+ current at HP: −90 mV, relative value ([1]; 5.0 × 10^−7 mol/L, in the presence of 60 mmol/L tetraethylammonium): 1.11 ± 0.03
K^+ current at HP: −90 mV, relative value (before compound = 1) ([1]; 5.0 × 10^−7 mol/L): 1.15 ± 0.03
K^+ current at HP: −90 mV, relative value ([1]; 5.0 × 10^−8 mol/L, in the presence of 5 μmol/L verapamil): 1.03 ± 0.02
K^+ current at HP: −90 mV, relative value ([1]; 5.0 × 10^−8 mol/L, in the presence of 20 mmol/L tetraethylammonium): 1.08 ± 0.02
K^+ current at HP: −90 mV, relative value ([1]; 5.0 × 10^−8 mol/L, in the presence of 60 mmol/L tetraethylammonium): 1.08 ± 0.02
K^+ current at HP: −90 mV, relative value (before compound = 1) ([1]; 5.0 × 10^−8 mol/L): 1.07 ± 0.02
K^+ current at HP: −90 mV, relative value ([1]; 5.0 × 10^−9 mol/L, in the presence of 20 mmol/L tetraethylammonium): 1.02 ± 0.02
K^+ current at HP: −90 mV, relative value (before compound = 1) ([1]; 5.0 × 10^−9 mol/L): 1.01 ± 0.03
peak compound concentration for increase of slowly-inactivating A-type K^+ currents ([1]; unidentified DRG cells, HP −90 mV): 1e-07 to 5e-07 mol/L
A-type IK (HP: −120 mV)-(HP: −40 mV), normalized to control [2]: 1.26 ± 0.03
micturition contraction, relative to before administration = 100 ([3]; 0.001 mg/kg p.o., after 1 hour): 99.3 ± 2.3%
pre-micturition contraction, relative to before administration = 100 ([3]; 0.001 mg/kg p.o., after 1 hour): 105.9 ± 7.8%
micturition contraction, relative to before administration = 100 [3, 4]: 101.5 ± 3.3%
pre-micturition contraction, relative to before administration = 100 [3, 4]: 100.3 ± 10.0%
micturition contraction, relative to before administration = 100 [3, 5]: 98.7 ± 5.2%
pre-micturition contraction, relative to before administration = 100 [3, 5]: 104.2 ± 10.2%
micturition contraction, relative to before administration = 100 ([3]; 0.01 mg/kg p.o., after 1 hour): 99.6 ± 1.2%
pre-micturition contraction, relative to before administration = 100 ([3]; 0.01 mg/kg p.o., after 1 hour): 59.5 ± 4.1 %
micturition contraction, relative to before administration = 100 ([3]; 0.01 mg/kg p.o., after 3 hours): 92.6 ± 3.2%
pre-micturition contraction, relative to before administration = 100 ([3]; 0.01 mg/kg p.o., after 3 hours): 69.5 ± 4.4 %
micturition contraction, relative to before administration = 100 ([3]; 0.01 mg/kg p.o., after 5 hours): 90.1 ± 4.3%
pre-micturition contraction, relative to before administration = 100 ([3]; 0.01 mg/kg p.o., after 5 hours): 67.8 ± 5.5 %
micturition contraction, relative to before administration = 100 ([3]; 0.1 mg/kg p.o., after 1 hour): 106.2 ± 9.2%
pre-micturition contraction, relative to before administration = 100 ([3]; 0.1 mg/kg p.o., after 1 hour): 55.8 ± 8.2 %
micturition contraction, relative to before administration = 100 ([3]; 0.1 mg/kg p.o., after 3 hours): 105.2 ± 9.6%
pre-micturition contraction, relative to before administration = 100 ([3]; 0.1 mg/kg p.o., after 3 hours): 66.2 ± 4.7 %
micturition contraction, relative to before administration = 100 ([3]; 0.1 mg/kg p.o., after 5 hours): 100.1 ± 8.6%
pre-micturition contraction, relative to before administration = 100 ([3]; 0.1 mg/kg p.o., after 5 hours): 69.2 ± 7.4 %
effect on micturition contraction ([3]; rats with hypertrophic bladder): had no influence
effect on pre-micturition contraction (detrusor instability) ([3]; rats with hypertrophic bladder): inhibited
